Patent EP1596818B1, “COSMETIC COMPOSITION WITH A WHITENING EFFECT, METHOD FOR THE PRODUCTION AND USE THEREOF” (Riemschneider, Randolph, Dr. Dr. Prof., priority 2003, dated 2004)
Like-named read-outs stand apart in the source and are kept apart here.

Key:
[1] = B16 melanoma cell test for whitening effect (inhibition of melanin production); assay type: cell-based, Mäusen; details: mouse, b16 melanoma cells, cell number relative to control (1,00), read-out: Relativwert
Experimental: (§1) Nach Zerstörung der Emulsion der Handcreme durch Wasserzusatz und Erhitzen auf 80 °C wurde die wässrige Phase abgetrennt, im Vakuum eingeengt und der Zentrifugenrückstand wurde gefriergetrocknet.
(§2) Definierte Mengen des dabei erhaltenen Lyophilisats wurden in entionisiertem Wasser gelöst und nach den Angaben in dem weiter unten beschriebenen Testverfahren behandelt. Tabelle 1
(§3) Die grobe Beurteilung der Whitening-Effekte wurde vorgenommen nach der Abtrennung der Zellen unter Verwendung von 6 ml EDTA-Lösung und Auszählen der Zellen, z.B. Tabelle 1 und Tabelle 3 (Beurteilungskriterien auf S. 15).
(§4) • 1. Herstellung und Sterilisierung eines Test-Kulturmediums • 2. Herstellung einer Zellenflotationslösung • 3. Einstellung des pH-Wertes des Kulturmediums • 4. Ausstreichen des Kulturmediums auf einer Petrischale • 5. Einimpfen von B16-Melanom-Zellen von Mäusen • 6. […] Auswechseln des Kulturmediums am 3. Tag • 8.

[2] = test system: B16-Melanom-Zellen von Mäusen; experiment: as above; assay type: cell-based; details: for Anzahl der Zellen: lyophilisate from aqueous phase of the hand cream, 6 days culture
Experimental: as §1, §2, §3, §4

[3] = test system: Tyrosinase; experiment: Tyrosinase inhibitor rate; assay type: biochemical
[4] = Preclinical test of local tolerability
Source text: Zusammenfassung: der Wirkstoff Methyl-ADAPD ist im Patch-Test auf allergisierendes Potenzial geprüft worden. In einer präklinischen Prüfung wurde die lokale Verträglichkeit abgeklärt.

[5] = Wirkstoff-Gehalt 1,25 mg/ml Lösung
[6] = Wirkstoff-Gehalt 2,5 mg/ml Lösung

**Q.** For CC(=O)C1C(=O)C=C(C)OC1=O (stereo not drawn) [Methyl-ADAPD], which viability at 144 h [1, 5] is on record?
**A.** The viability at 144 h was 92%.

**Q.** And the viability at 144 h [1, 6]?
**A.** The viability at 144 h was 86%.

**Q.** And the Whitening-Effekt [2, 5]?
**A.** Its Whitening-Effekt is “+”.

**Q.** What about the “Anzahl der Zellen” value [2, 5] of the same molecule?
**A.** The value was 82x10^4.

**Q.** And the Whitening-Effekt [2, 6]?
**A.** The Whitening-Effekt was “+++”.

**Q.** And the “Anzahl der Zellen” value [2, 6]?
**A.** The value was 79x10^4.

**Q.** And the Tyrosinase-Inhibitorrate ([3]; Wirkstoff-Gehalt 0,5 mg/ml Lösung)?
**A.** Its Tyrosinase-Inhibitorrate is 84%.

**Q.** And the Tyrosinase-Inhibitorrate ([3]; Wirkstoff-Gehalt 5 mg/ml Lösung)?
**A.** The Tyrosinase-Inhibitorrate was 99,1%.

**Q.** What about the “lokale Verträglichkeit” value [4] of the same molecule?
**A.** Its value is “keine Bedenken”.
